The values that follow come from patent US6858638B2, “Substituted indazoles, compositions containing them, method of production and use” (Aventis Pharma S.A., priority 2002, dated 2005).

Common to all, as to format: biochemical
For one assay, the target named is T1, human FAK (Homo sapiens, UniProt Q05397).
T1 construct: The complete cDNA of human FAK; made in house; host or cells: baculovirus expression system (vector pFastBac HTc)
The experiment in a line: FAK autophosphorylation inhibition, time resolved fluorescence (HTRF) assay. The conditions noted are these: 10 μM (values without asterisk); read-out: FAK % inhib at 10 μM. An outline of the steps: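 His-tagged full-length human FAK from baculovirus (6.6 µg/ml) self-phosphorylates with 15 µM ATP in HEPES pH 7.2, MgCl2, vanadate, 1 h at 37 °C. HTRF detection (Eu-anti-phosphotyrosine / XL665-anti-His), 665/620 nm ratio; % inhibition vs untreated control, duplicate mean.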
(TR-FRET usually uses a lanthanide donor and a delayed reading to cut background.)

Assay [1] has as its target T2, human IGF1R cytoplasmic domain (Homo sapiens, UniProt P08069).
T2 construct: The human IGF1R cytoplasmic domain was cloned; made in house; host or cells: SF21 insect cells (baculovirus)
The experiment in a line: IGF1R autophosphorylation inhibition, time resolved fluorescence (HTRF) assay. Particulars: 10 μM; read-out: IGF1R % inhib at 10 μM. The protocol:
The inhibitory activity of the compounds on IGF1R is determined by measuring the inhibition of the autophosphorylation of the enzyme using a time resolved fluorescence (HTRF) assay.
The human IGF1R cytoplasmic domain was cloned, as a fusion with glutathione S-transferase (GST), into the baculovirus expression vector pFastBac-GST. The protein was expressed in SF21 cells and purified to approximately 80% homogeneity.
The kinase activity was determined by incubating the enzyme with various concentrations of test compound in a 50 mM Hepes buffer, pH 7.5, containing 5 mM MnCl2, 50 mM NaCl, 3% glycerol, 0.025% Tween […] of ATP. The enzyme reaction is stopped by adding 100 mM Hepes buffer, pH 7.0, containing 0.4 M KF, 133 mM EDTA and 0.1% BSA containing an anti-GST antibody labeled with XL665 and an antiphosphotyrosine antibody conjugated to europium cryptate (Eu-K). The characteristics of the two fluorophores, XL-665 and Eu-K, are available in G. Mathis et al., Anticancer Research, 1997, 17, pages 3011-3014. The transfer of energy from the excited europium cryptate to the acceptor XL665 is proportional to the degree of autophosphorylation of IGF1R. The long-lived signal specific for XL-665 is measured in a Victor analyzer plate counter (Perkin-elmer). The inhibition of the IGF1R autophosphorylation activity with compounds of the invention is expressed as percentage inhibition compared to a control whose activity is measured in the absence of test compound.

The target of another assay is T3, Aurora2 kinase (Homo sapiens, UniProt O14965).
T3 construct: A complete recombinant Aurora2 enzyme; His tag (N); made in house; host or cells: E. coli
T3 sequence (O14965 1-403): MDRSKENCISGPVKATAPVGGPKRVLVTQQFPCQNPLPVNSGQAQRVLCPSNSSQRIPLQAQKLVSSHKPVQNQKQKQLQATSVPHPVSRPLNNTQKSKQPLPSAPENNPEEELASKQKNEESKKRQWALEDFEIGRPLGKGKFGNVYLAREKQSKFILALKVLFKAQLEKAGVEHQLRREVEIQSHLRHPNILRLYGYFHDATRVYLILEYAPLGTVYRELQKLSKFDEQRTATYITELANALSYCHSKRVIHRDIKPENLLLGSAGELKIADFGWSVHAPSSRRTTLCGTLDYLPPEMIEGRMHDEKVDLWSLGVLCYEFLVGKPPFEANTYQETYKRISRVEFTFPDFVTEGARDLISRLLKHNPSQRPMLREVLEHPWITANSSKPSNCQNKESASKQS
Briefly: Aurora2 kinase radioactivity scintillation assay using nickel chelate (NuMA substrate). Particulars: 10 μM; read-out: Aurora2 % inhib at 10 μM. An outline of the steps:
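His-tagged full-length Aurora2 (0.02 μM, E. coli) phosphorylating His-tagged NuMA C-terminal fragment (0.5 μM) with 1 μM ATP plus [33P]-ATP, 30 min at 37 °C, pH 7.5 Tris buffer with MgCl2. Nickel-chelate scintillation read; percent inhibition versus no-compound control.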

The next assay concerns the target T4, human KDR enzyme (Homo sapiens, UniProt P35968).
T4 construct: The cytoplasmic domain of the human KDR enzyme; GST; made in house; host or cells: SF21 insect cells (baculovirus)
Briefly: KDR substrate (PLCγ) phosphorylation, scintillation assay. The conditions noted are these: 10 μM; for inhibition at 10 µM: read-out: KDR % inhib at 10 μM. Summed up:
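GST-fused human KDR cytoplasmic domain from SF21 cells (about 60% pure, 100 ng) phosphorylated 2 μg of GST-PLCγ SH2-SH3 fragment. The trigger solution held γ33P-ATP with 2 μM cold ATP, in MOPS buffer pH 7.2 with Mg2+, Mn2+, vanadate and NaF. Reactions ran 1 h at 37 °C, were stopped with EDTA and counted by scintillation; results are % inhibition versus the no-compound control.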

T1 sequence (Q05397 whole entry): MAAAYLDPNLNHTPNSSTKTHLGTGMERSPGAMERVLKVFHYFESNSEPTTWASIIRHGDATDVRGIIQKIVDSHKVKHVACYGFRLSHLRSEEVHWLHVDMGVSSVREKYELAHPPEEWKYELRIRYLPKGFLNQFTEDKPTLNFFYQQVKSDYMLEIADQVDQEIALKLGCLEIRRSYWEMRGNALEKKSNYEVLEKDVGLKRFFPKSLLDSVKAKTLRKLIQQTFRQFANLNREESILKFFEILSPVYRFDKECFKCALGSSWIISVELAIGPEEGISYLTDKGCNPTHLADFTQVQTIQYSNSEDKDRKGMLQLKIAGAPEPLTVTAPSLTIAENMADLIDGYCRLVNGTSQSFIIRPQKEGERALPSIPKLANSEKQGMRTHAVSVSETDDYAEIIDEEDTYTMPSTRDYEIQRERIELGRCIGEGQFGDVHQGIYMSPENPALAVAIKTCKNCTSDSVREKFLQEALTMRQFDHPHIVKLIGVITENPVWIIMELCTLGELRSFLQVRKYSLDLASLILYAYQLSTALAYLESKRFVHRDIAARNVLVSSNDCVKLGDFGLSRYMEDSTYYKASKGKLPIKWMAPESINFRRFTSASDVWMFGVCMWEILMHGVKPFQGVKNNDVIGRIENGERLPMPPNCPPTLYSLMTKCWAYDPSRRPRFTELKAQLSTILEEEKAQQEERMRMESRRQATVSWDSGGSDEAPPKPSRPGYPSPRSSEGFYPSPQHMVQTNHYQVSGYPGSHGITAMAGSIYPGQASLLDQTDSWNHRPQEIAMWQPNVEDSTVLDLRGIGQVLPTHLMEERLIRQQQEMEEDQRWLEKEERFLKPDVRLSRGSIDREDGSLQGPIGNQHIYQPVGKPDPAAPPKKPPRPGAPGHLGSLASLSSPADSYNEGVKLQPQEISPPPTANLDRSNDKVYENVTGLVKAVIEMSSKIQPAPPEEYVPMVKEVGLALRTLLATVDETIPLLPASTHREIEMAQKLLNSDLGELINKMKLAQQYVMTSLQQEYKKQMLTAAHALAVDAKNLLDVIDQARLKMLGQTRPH
T2 sequence (P08069 960-1367 limits assumed): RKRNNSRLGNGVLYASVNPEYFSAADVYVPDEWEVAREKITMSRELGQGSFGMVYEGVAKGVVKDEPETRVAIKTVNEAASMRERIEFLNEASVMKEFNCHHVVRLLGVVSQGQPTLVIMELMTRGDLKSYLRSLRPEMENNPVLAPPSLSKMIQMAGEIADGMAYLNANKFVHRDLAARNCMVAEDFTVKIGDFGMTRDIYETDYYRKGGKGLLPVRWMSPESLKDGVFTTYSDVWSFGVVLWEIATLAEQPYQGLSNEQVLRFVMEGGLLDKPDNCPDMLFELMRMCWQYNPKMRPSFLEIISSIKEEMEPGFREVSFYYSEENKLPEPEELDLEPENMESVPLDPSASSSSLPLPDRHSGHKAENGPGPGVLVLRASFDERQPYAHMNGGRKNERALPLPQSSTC
T4 sequence (P35968 786-1356 limits assumed): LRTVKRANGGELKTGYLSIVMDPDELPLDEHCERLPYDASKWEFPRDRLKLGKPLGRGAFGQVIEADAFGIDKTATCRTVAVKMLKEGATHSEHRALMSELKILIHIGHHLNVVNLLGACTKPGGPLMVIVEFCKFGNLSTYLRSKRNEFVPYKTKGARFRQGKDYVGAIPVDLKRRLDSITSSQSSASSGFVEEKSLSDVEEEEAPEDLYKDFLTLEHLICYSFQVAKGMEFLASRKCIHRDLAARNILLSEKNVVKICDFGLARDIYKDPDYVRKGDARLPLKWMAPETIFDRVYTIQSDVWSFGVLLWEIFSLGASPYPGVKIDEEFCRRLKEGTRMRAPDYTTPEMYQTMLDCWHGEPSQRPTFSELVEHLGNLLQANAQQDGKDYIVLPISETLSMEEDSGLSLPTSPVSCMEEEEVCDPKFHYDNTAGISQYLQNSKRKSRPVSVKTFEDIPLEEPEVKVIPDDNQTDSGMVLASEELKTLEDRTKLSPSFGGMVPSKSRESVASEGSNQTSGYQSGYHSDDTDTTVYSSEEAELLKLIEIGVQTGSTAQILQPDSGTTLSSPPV

Regarding `O=S(=O)(Nc1ccc2[nH]nc(-c3ccc(O)cc3)c2c1)c1ccccc1` [Example 34, N-[3-(4-Hydroxyphenyl)-1H-indazol-5-yl]benzenesulfonamide], the inhibition at 10 µM at human FAK was 87%; in assay [1], 89%; at Aurora2 kinase, 100%; on human KDR enzyme it was 96%.

Take `CS(=O)(=O)c1ccccc1S(=O)(=O)Nc1ccc2[nH]nc(-c3cccc([N+](=O)[O-])c3)c2c1` [Example 162, 2-Methanesulfonyl-N-[3-(3-nitrophenyl)-1H-indazol-5-yl]-benzenesulfonamide]: the inhibition at 10 µM on human FAK worked out at 97%; in assay [1], 82%; at Aurora2 kinase, 91%; at human KDR enzyme it was 57%.

On to `CC(C)c1ccc(-c2n[nH]c3ccc(NS(=O)(=O)c4ccccc4S(C)(=O)=O)cc23)cc1` [Example 201, N-[3-(4-Isopropylphenyl)-1H-indazol-5-yl]-2-methanesulfonyl-benzenesulfonamide], for which the inhibition at 10 µM turned out to be 55% on human FAK, 24% in assay [1], 82% on Aurora2 kinase and 50% at human KDR enzyme.

For `COc1ccc(-c2n[nH]c3ccc(NS(=O)(=O)c4ccccc4S(C)(=O)=O)cc23)cc1OC` [Example 198, 2-Methanesulfonyl-N-[3-(3,4-dimethoxyphenyl)-1H-indazol-5-yl]benzenesulfonamide], the inhibition at 10 µM was found to be 98% at human FAK, 76% in assay [1], 98% on Aurora2 kinase and 66% at human KDR enzyme.

With `CS(=O)(=O)c1ccccc1S(=O)(=O)Nc1ccc2[nH]nc(-c3ccc(Cl)s3)c2c1` [Example 181, N-[3-(5-Chlorothiophen-2-yl)-1H-indazol-5-yl]-2-methanesulfonyl-benzenesulfonamide], the inhibition at 10 µM on human FAK is 83%; in assay [1], 55%; on Aurora2 kinase, 94%; at human KDR enzyme, 49%.

In the case of `CS(=O)(=O)c1ccccc1S(=O)(=O)Nc1ccc2[nH]nc(-c3cc(C(F)(F)F)cc(C(F)(F)F)c3)c2c1` [Example 101, N-[3-(3,5-bistrifluoromethylphenyl)-1H-indazol-5-yl]-2-methylsulfonylbenzenesulfonamide], the inhibition at 10 µM was determined as 84% at human FAK, 28% in assay [1], 30% at Aurora2 kinase and 39% on human KDR enzyme.

Consider `CS(=O)(=O)c1ccccc1S(=O)(=O)Nc1ccc2[nH]nc(-c3cccs3)c2c1` [Example 174, 2-Methanesulfonyl-N-(3-thiophen-2-yl-1H-indazol-5-yl)-benzenesulfonamide], for which the results for the inhibition at 10 µM (on human FAK; in assay [1]; on Aurora2 kinase) were 100%, 65% and 93%, respectively. For the same compound, the “KDR % inhib at 10 μM” value at human KDR enzyme worked out at 53%.

As for `N#Cc1ccccc1S(=O)(=O)Nc1ccc2[nH]nc(-c3ccccc3)c2c1` [Example 144, 2-Cyano-N-(3-phenyl-1H-indazol-5-yl)-benzenesulfonamide], the inhibition at 10 µM at human FAK was 70%; in assay [1], 69%; on Aurora2 kinase it was 100%; at human KDR enzyme, 72%.

Regarding `CS(=O)(=O)c1ccccc1S(=O)(=O)Nc1ccc2[nH]nc(-c3ccc(-c4ccccc4)c(F)c3)c2c1` [Example 210, N-[3-(2-Fluorobiphenyl-4-yl)-1H-indazol-5-yl]-2-methanesulfonyl-benzenesulfonamide], the inhibition at 10 µM turned out to be 70% at human FAK, 0% in assay [1], 65% at Aurora2 kinase and 50% on human KDR enzyme.

Turning to `CS(=O)(=O)c1ccccc1S(=O)(=O)Nc1ccc2[nH]nc(-c3cccnc3)c2c1` [Example 59, 2-Methylsulfonyl-N-(3-pyridin-3-yl-1H-indazol-5-yl)benzenesulfonamide], the inhibition at 10 µM on human FAK is 95%; in assay [1], 88%; at Aurora2 kinase, 100%; on human KDR enzyme, 40%.

As to `CS(=O)(=O)c1ccccc1S(=O)(=O)Nc1ccc2[nH]nc(-c3ccc(I)cc3)c2c1` [Example 218, N-[3-(4-Iodophenyl)-1H-indazol-5-yl]-2-methanesulfonyl-benzenesulfonamide], the inhibition at 10 µM at human FAK came to 15%; in assay [1] it was 20%; at Aurora2 kinase, 68%; at human KDR enzyme, 37%.

Take `CS(=O)(=O)c1ccccc1S(=O)(=O)Nc1ccc2[nH]nc(-c3ccc(F)c(Cl)c3)c2c1` [Example 167, N-[3-(3-Chloro-4-fluoro-phenyl)-1H-indazol-5-yl]-2-methanesulfonyl-benzenesulfonamide]: the inhibition at 10 µM on human FAK was determined as 91%; in assay [1], 77%; at Aurora2 kinase it was 90%; at human KDR enzyme it was 44%.

Turning to `CS(=O)(=O)c1ccccc1S(=O)(=O)Nc1ccc2[nH]nc(-c3ccccc3F)c2c1` [Example 188, N-[3-(2-Fluorophenyl)-1H-indazol-5-yl]-2-methanesulfonyl-benzenesulfonamide], the inhibition at 10 µM was 91% at human FAK, 61% in assay [1], 74% at Aurora2 kinase and 64% on human KDR enzyme.

As for `CS(=O)(=O)c1ccccc1S(=O)(=O)Nc1ccc2[nH]nc(-c3ccc(Cl)c(Cl)c3)c2c1` [Example 205, N-[3-(3,4-Dichlorophenyl)-1H-indazol-5-yl]-2-methanesulfonyl-benzenesulfonamide], the inhibition at 10 µM at human FAK came to 90%; in assay [1], 66%; on Aurora2 kinase it was 86%; on human KDR enzyme, 42%.

Turning to `CS(=O)(=O)c1ccccc1S(=O)(=O)Nc1ccc2[nH]nc(-c3cccc4c3oc3ccccc34)c2c1` [Example 169, N-(3-(Dibenzofuran-4-yl)-1H-indazol-5-yl)-2-methanesulfonyl-benzenesulfonamide], the inhibition at 10 µM at human FAK was 22%; in assay [1], 13%; on Aurora2 kinase it was 52%; on human KDR enzyme it was 66%.

Regarding `CC(C)c1cccc(-c2n[nH]c3ccc(NS(=O)(=O)c4ccccc4S(C)(=O)=O)cc23)c1` [Example 203, N-[3-(3-Isopropylphenyl)-1H-indazol-5-yl]-2-methanesulfonyl-benzenesulfonamide], the inhibition at 10 µM came out at 86% on human FAK, 59% in assay [1], 84% on Aurora2 kinase and 39% on human KDR enzyme.

For `O=S(=O)(Nc1ccc2[nH]nc(-c3cc4ccccc4[nH]3)c2c1)c1ccccc1` [Example 82, N-[3-(1H-Indol-2-yl)-1H-indazol-5-yl]benzenesulfonamide], the inhibition at 10 µM was 93% on human FAK, 100% in assay [1], 100% at Aurora2 kinase and 100% on human KDR enzyme.
